The molecules below were run on late watergrass (assay: Test Example 1: herbicidal activity, application before weed generation under submerged conditions (Table 16, symbol A)). Details: amount of applied herbicide 320 g/ha.
Assay type: in vivo, late watergrass (Echinochloa oryzicola)
Outline: (§1)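 Emulsion formulation, water-diluted to set dose, was put onto the flooded surface (4 cm depth, alluvial soil) the same day weeds were sown and 2.5-leaf rice transplanted. After 3 weeks at 25-30 °C under glass, each species was rated 0 (≤5% kill) to 5 (≥90% kill).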

Compound | Herbicidal effect, A: late watergrass
COc1ccccc1-c1sc2cc(OCC3CC3)ccc2c1-c1c(O)c(C)nn(C)c1=O [3-129] | 5 (Herbicidal rate of 90% or more (almost completely withered))
CCCC(=O)Oc1c(C)nn(C)c(=O)c1-c1c(-c2ccc(OC)cc2)sc2cc(OC)ccc12 [3-069] | 0 (Herbicidal rate of 5% or less (almost no effect))

The molecules below were run on Japanese bulrush (assay: Test Example 1: herbicidal activity, application before weed generation under submerged conditions (Table 16, symbol B)). Details: amount of applied herbicide 320 g/ha.
Assay type: in vivo, Japanese bulrush (Schoenoplectus juncoides)
Outline: as §1

Compound | Herbicidal effect, B: Japanese bulrush
COc1ccccc1-c1sc2cc(OCC3CC3)ccc2c1-c1c(O)c(C)nn(C)c1=O [3-129] | 5 (Herbicidal rate of 90% or more (almost completely withered))
CCCC(=O)Oc1c(C)nn(C)c(=O)c1-c1c(-c2ccc(OC)cc2)sc2cc(OC)ccc12 [3-069] | 3 (Herbicidal rate of 40% or more and less than 70%)

The molecules below were run on Japanese bulrush (assay: Test Example 2: herbicidal activity, application during weed generation under submerged conditions (Table 17, symbol B)). Details: AAH 320 g/ha; application during weed generation, submerged conditions.
Assay type: in vivo, Japanese bulrush (Schoenoplectus juncoides)
Outline: (§2)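 Alluvial soil in Wagner pots was flooded to 4 cm depth and sown with the three weeds together; pots were kept in a greenhouse at 25° C. to 30° C. At the one to two leaf stage, an emulsion formulation diluted in water to a set rate went onto the water surface; scored three weeks later.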

Compound | herbicidal effect rating, B: Japanese bulrush
COc1ccccc1-c1sc2cc(OCC3CC3)ccc2c1-c1c(O)c(C)nn(C)c1=O [3-129] | 3 (Herbicidal rate of 40% or more and less than 70%)
CCCC(=O)Oc1c(C)nn(C)c(=O)c1-c1c(-c2ccc(OC)cc2)sc2cc(OC)ccc12 [3-069] | 3 (Herbicidal rate of 40% or more and less than 70%)

Each molecule was assayed on oval-leafed pondweed (assay: Test Example 2: herbicidal activity, application during weed generation under submerged conditions (Table 17, symbol C)). Details: AAH 320 g/ha; application during weed generation, submerged conditions.
Assay type: in vivo, oval-leafed pondweed (Monochoria vaginalis)
Outline: as §2

Compound | herbicidal effect rating, C: oval-leafed pondweed
COc1ccccc1-c1sc2cc(OCC3CC3)ccc2c1-c1c(O)c(C)nn(C)c1=O [3-129] | 3 (Herbicidal rate of 40% or more and less than 70%)
CCCC(=O)Oc1c(C)nn(C)c(=O)c1-c1c(-c2ccc(OC)cc2)sc2cc(OC)ccc12 [3-069] | 4 (Herbicidal rate of 70% or more and less than 90%)

Each molecule was assayed on green foxtail (assay: Test Example 4: herbicidal effect by soil treatment (Table 19, symbol G)). Details: amount of applied herbicide 320 g/ha.
Assay type: in vivo, green foxtail (Setaria viridis)
Outline: (§3)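 Soil-surface application: an emulsion agent diluted with water to the predetermined dose is sprayed uniformly over seeds lying under roughly 1.5 cm of sterilized diluvial soil. Boxes stay in a greenhouse at 25° C. to 30° C. Three weeks later, each species is graded on previously defined criteria.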

Compound | G: green foxtail, herbicidal effect grade
COc1ccccc1-c1sc2cc(OCC3CC3)ccc2c1-c1c(O)c(C)nn(C)c1=O [3-129] | 5 (Herbicidal rate of 90% or more (almost completely withered))
CCCC(=O)Oc1c(C)nn(C)c(=O)c1-c1c(-c2ccc(OC)cc2)sc2cc(OC)ccc12 [3-069] | 2 (Herbicidal rate of 20% or more and less than 40%)

These molecules were tested on wild oat (assay: Test Example 4: herbicidal effect by soil treatment (Table 19, symbol I)). Details: amount of applied herbicide 320 g/ha.
Assay type: in vivo, wild oat (Avena fatua)
Outline: as §3

Compound | I: wild oat, herbicidal effect grade
COc1ccccc1-c1sc2cc(OCC3CC3)ccc2c1-c1c(O)c(C)nn(C)c1=O [3-129] | 1 (Herbicidal rate of 5% or more and less than 20%)
CCCC(=O)Oc1c(C)nn(C)c(=O)c1-c1c(-c2ccc(OC)cc2)sc2cc(OC)ccc12 [3-069] | 0 (Herbicidal rate of 5% or less (almost no effect))

The molecules below were run on blackgrass (assay: Test Example 4: herbicidal effect by soil treatment (Table 19, symbol J)). Details: amount of applied herbicide 320 g/ha.
Assay type: in vivo, blackgrass (Alopecurus myosuroides)
Outline: as §3

Compound | J: blackgrass, herbicidal effect grade
COc1ccccc1-c1sc2cc(OCC3CC3)ccc2c1-c1c(O)c(C)nn(C)c1=O [3-129] | 4 (Herbicidal rate of 70% or more and less than 90%)
CCCC(=O)Oc1c(C)nn(C)c(=O)c1-c1c(-c2ccc(OC)cc2)sc2cc(OC)ccc12 [3-069] | 0 (Herbicidal rate of 5% or less (almost no effect))

The molecules below were run on Italian ryegrass (assay: Test Example 4: herbicidal effect by soil treatment (Table 19, symbol K)). Details: amount of applied herbicide 320 g/ha.
Assay type: in vivo, Italian ryegrass (Lolium multiflorum)
Outline: as §3

Compound | K: Italian ryegrass, herbicidal effect grade
COc1ccccc1-c1sc2cc(OCC3CC3)ccc2c1-c1c(O)c(C)nn(C)c1=O [3-129] | 5 (Herbicidal rate of 90% or more (almost completely withered))
CCCC(=O)Oc1c(C)nn(C)c(=O)c1-c1c(-c2ccc(OC)cc2)sc2cc(OC)ccc12 [3-069] | 0 (Herbicidal rate of 5% or less (almost no effect))

The molecules below were run on velvetleaf (assay: Test Example 4: herbicidal effect by soil treatment (Table 19, symbol M)). Details: amount of applied herbicide 320 g/ha.
Assay type: in vivo, velvetleaf (Abutilon theophrasti)
Outline: as §3

Compound | M: velvetleaf, herbicidal effect grade
COc1ccccc1-c1sc2cc(OCC3CC3)ccc2c1-c1c(O)c(C)nn(C)c1=O [3-129] | 0 (Herbicidal rate of 5% or less (almost no effect))
CCCC(=O)Oc1c(C)nn(C)c(=O)c1-c1c(-c2ccc(OC)cc2)sc2cc(OC)ccc12 [3-069] | 0 (Herbicidal rate of 5% or less (almost no effect))

What follows are molecules tested on redroot pigweed (assay: Test Example 4: herbicidal effect by soil treatment (Table 19, symbol N)). Details: amount of applied herbicide 320 g/ha.
Assay type: in vivo, redroot pigweed (Amaranthus retroflexus)
Outline: as §3

Compound | N: redroot pigweed, herbicidal effect grade
COc1ccccc1-c1sc2cc(OCC3CC3)ccc2c1-c1c(O)c(C)nn(C)c1=O [3-129] | 5 (Herbicidal rate of 90% or more (almost completely withered))
CCCC(=O)Oc1c(C)nn(C)c(=O)c1-c1c(-c2ccc(OC)cc2)sc2cc(OC)ccc12 [3-069] | 0 (Herbicidal rate of 5% or less (almost no effect))

The molecules below were run on lambsquarters (assay: Test Example 4: herbicidal effect by soil treatment (Table 19, symbol O)). Details: amount of applied herbicide 320 g/ha.
Assay type: in vivo, lambsquarters (Chenopodium album)
Outline: as §3

Compound | O: lambsquarters, herbicidal effect grade
COc1ccccc1-c1sc2cc(OCC3CC3)ccc2c1-c1c(O)c(C)nn(C)c1=O [3-129] | 5 (Herbicidal rate of 90% or more (almost completely withered))
CCCC(=O)Oc1c(C)nn(C)c(=O)c1-c1c(-c2ccc(OC)cc2)sc2cc(OC)ccc12 [3-069] | 0 (Herbicidal rate of 5% or less (almost no effect))

What follows are molecules tested on persian speedwell (assay: Test Example 4: herbicidal effect by soil treatment (Table 19, symbol R)). Details: amount of applied herbicide 320 g/ha.
Assay type: in vivo, Persian speedwell (Veronica persica)
Outline: as §3

Compound | R: persian speedwell, herbicidal effect grade
COc1ccccc1-c1sc2cc(OCC3CC3)ccc2c1-c1c(O)c(C)nn(C)c1=O [3-129] | 4 (Herbicidal rate of 70% or more and less than 90%)
CCCC(=O)Oc1c(C)nn(C)c(=O)c1-c1c(-c2ccc(OC)cc2)sc2cc(OC)ccc12 [3-069] | 4 (Herbicidal rate of 70% or more and less than 90%)

What follows are molecules tested on southern crabgrass (assay: Test Example 5: herbicidal effect by foliage application, plastic box (Table 20, symbol F)). Details: foliage application, 320 g/ha, three weeks after application.
Assay type: in vivo, southern crabgrass (Digitaria ciliaris)
Outline: (§4)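 Sow seeds spot-wise in sterilized diluvial soil; cover with ~1.5 cm soil. Grow 14 days in greenhouse, 25° C. to 30° C. Spray foliage with emulsion diluted to predetermined amount. Rate effect after 3 weeks.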

Compound | F: southern crabgrass, herbicidal effect grade
COc1ccccc1-c1sc2cc(OCC3CC3)ccc2c1-c1c(O)c(C)nn(C)c1=O [3-129] | 5 (Herbicidal rate of 90% or more (almost completely withered))
CCCC(=O)Oc1c(C)nn(C)c(=O)c1-c1c(-c2ccc(OC)cc2)sc2cc(OC)ccc12 [3-069] | 0 (Herbicidal rate of 5% or less (almost no effect))

The molecules below were run on green foxtail (assay: Test Example 5: herbicidal effect by foliage application, plastic box (Table 20, symbol G)). Details: foliage application, 320 g/ha, three weeks after application.
Assay type: in vivo, green foxtail (Setaria viridis)
Outline: as §4

Compound | G: green foxtail, herbicidal effect grade
COc1ccccc1-c1sc2cc(OCC3CC3)ccc2c1-c1c(O)c(C)nn(C)c1=O [3-129] | 5 (Herbicidal rate of 90% or more (almost completely withered))
CCCC(=O)Oc1c(C)nn(C)c(=O)c1-c1c(-c2ccc(OC)cc2)sc2cc(OC)ccc12 [3-069] | 0 (Herbicidal rate of 5% or less (almost no effect))

What follows are molecules tested on barnyard grass (assay: Test Example 5: herbicidal effect by foliage application, plastic box (Table 20, symbol H)). Details: foliage application, 320 g/ha, three weeks after application.
Assay type: in vivo, barnyard grass (Echinochloa crus-galli)
Outline: as §4

Compound | H: barnyard grass, herbicidal effect grade
COc1ccccc1-c1sc2cc(OCC3CC3)ccc2c1-c1c(O)c(C)nn(C)c1=O [3-129] | 4 (Herbicidal rate of 70% or more and less than 90%)
CCCC(=O)Oc1c(C)nn(C)c(=O)c1-c1c(-c2ccc(OC)cc2)sc2cc(OC)ccc12 [3-069] | 2 (Herbicidal rate of 20% or more and less than 40%)

Each molecule was assayed on wild oat (assay: Test Example 5: herbicidal effect by foliage application, plastic box (Table 20, symbol I)). Details: foliage application, 320 g/ha, three weeks after application.
Assay type: in vivo, wild oat (Avena fatua)
Outline: as §4

Compound | I: wild oat, herbicidal effect grade
COc1ccccc1-c1sc2cc(OCC3CC3)ccc2c1-c1c(O)c(C)nn(C)c1=O [3-129] | 3 (Herbicidal rate of 40% or more and less than 70%)
CCCC(=O)Oc1c(C)nn(C)c(=O)c1-c1c(-c2ccc(OC)cc2)sc2cc(OC)ccc12 [3-069] | 0 (Herbicidal rate of 5% or less (almost no effect))

These molecules were tested on blackgrass (assay: Test Example 5: herbicidal effect by foliage application, plastic box (Table 20, symbol J)). Details: foliage application, 320 g/ha, three weeks after application.
Assay type: in vivo, blackgrass (Alopecurus myosuroides)
Outline: as §4

Compound | J: blackgrass, herbicidal effect grade
COc1ccccc1-c1sc2cc(OCC3CC3)ccc2c1-c1c(O)c(C)nn(C)c1=O [3-129] | 5 (Herbicidal rate of 90% or more (almost completely withered))
CCCC(=O)Oc1c(C)nn(C)c(=O)c1-c1c(-c2ccc(OC)cc2)sc2cc(OC)ccc12 [3-069] | 0 (Herbicidal rate of 5% or less (almost no effect))

These molecules were tested on Italian ryegrass (assay: Test Example 5: herbicidal effect by foliage application, plastic box (Table 20, symbol K)). Details: foliage application, 320 g/ha, three weeks after application.
Assay type: in vivo, Italian ryegrass (Lolium multiflorum)
Outline: as §4

Compound | K: Italian ryegrass, herbicidal effect grade
COc1ccccc1-c1sc2cc(OCC3CC3)ccc2c1-c1c(O)c(C)nn(C)c1=O [3-129] | 5 (Herbicidal rate of 90% or more (almost completely withered))
CCCC(=O)Oc1c(C)nn(C)c(=O)c1-c1c(-c2ccc(OC)cc2)sc2cc(OC)ccc12 [3-069] | 3 (Herbicidal rate of 40% or more and less than 70%)

What follows are molecules tested on windgrass (assay: Test Example 5: herbicidal effect by foliage application, plastic box (Table 20, symbol L)). Details: foliage application, 320 g/ha, three weeks after application.
Assay type: in vivo, windgrass (Apera spica-venti)
Outline: as §4

Compound | L: windgrass, herbicidal effect grade
COc1ccccc1-c1sc2cc(OCC3CC3)ccc2c1-c1c(O)c(C)nn(C)c1=O [3-129] | 5 (Herbicidal rate of 90% or more (almost completely withered))
CCCC(=O)Oc1c(C)nn(C)c(=O)c1-c1c(-c2ccc(OC)cc2)sc2cc(OC)ccc12 [3-069] | 3 (Herbicidal rate of 40% or more and less than 70%)

These molecules were tested on velvetleaf (assay: Test Example 5: herbicidal effect by foliage application, plastic box (Table 20, symbol M)). Details: foliage application, 320 g/ha, three weeks after application.
Assay type: in vivo, velvetleaf (Abutilon theophrasti)
Outline: as §4

Compound | M: velvetleaf, herbicidal effect grade
COc1ccccc1-c1sc2cc(OCC3CC3)ccc2c1-c1c(O)c(C)nn(C)c1=O [3-129] | 4 (Herbicidal rate of 70% or more and less than 90%)
CCCC(=O)Oc1c(C)nn(C)c(=O)c1-c1c(-c2ccc(OC)cc2)sc2cc(OC)ccc12 [3-069] | 5 (Herbicidal rate of 90% or more (almost completely withered))

What follows are molecules tested on chickweed (assay: Test Example 5: herbicidal effect by foliage application, plastic box (Table 20, symbol P)). Details: foliage application, 320 g/ha, three weeks after application.
Assay type: in vivo, common chickweed (Stellaria media)
Outline: as §4

Compound | P: chickweed, herbicidal effect grade
COc1ccccc1-c1sc2cc(OCC3CC3)ccc2c1-c1c(O)c(C)nn(C)c1=O [3-129] | 5 (Herbicidal rate of 90% or more (almost completely withered))
CCCC(=O)Oc1c(C)nn(C)c(=O)c1-c1c(-c2ccc(OC)cc2)sc2cc(OC)ccc12 [3-069] | 5 (Herbicidal rate of 90% or more (almost completely withered))

Reference: patent US20230085307A1, “PYRIDAZINONE COMPOUND AND HERBICIDE” (NISSAN CHEMICAL CORPORATION, priority 2019, published 2023)
